{"source": "patent US11890287B2", "about": "“Therapeutic compounds and compositions for treating social disorders and substance use disorders” (Kinoxis Therapeutics Pty Ltd, priority 2015, dated 2024)", "key": {"[1]": {"experiment": "24-hour pharmacokinetic study, intravenous route", "type": "in vivo, male Sprague Dawley rats", "conditions": "20 mg/kg IV; for Vd: read-out: Vz", "description": "A single intravenous 20 mg/kg (corresponding to ˜17.1 mg/kg expressed as the free base corrected for purity) bolus dose of SOC-1 test item formulated in Hartman's solution was administered to three adult male Sprague Dawley rats. A total of 10 blood samples were collected from each rat at time points ranging from pre-dose to 24 hours post-dose. The blood samples were subsequently processed to plasma and analysed for plasma concentrations of SOC-1 using a screening LC-MS/MS method (assay range=50-5000 ng/mL). Pharmacokinetic parameters were estimated from the plasma concentration versus time data by non-compartmental methods using Phoenix 64 WinNonlin® software.\nPrior to treatments the rats were subject to surgery to cannulate the jugular vein (for dose administration, IV) and femoral artery (for blood sample collection, IA) with exteriorisation of the cannulas per test facility SOPs. Following recovery from surgery the rats were transferred to a Culex system for dose administration and blood sampling (with both lines tended per test facility SOPs).\nThe intravenous treatments were administered via the jugular cannula with a dosing volume of 4.0 mL/kg on the day following surgery. The treatments were followed by ˜200 μL vehicle to ensure a full dose was delivered to the animals.\nBlood samples (˜250 μl) were collected in lithium heparin tubes from the IA cannula at the following time points: pre-dose, 2, 5, 10, 30, 60 minutes, 2, 4, 8 and 24 hours post-dose\nBlood samples were kept on ice immediately after collection to minimize degradation and centrifuged as soon as possible at approximately 4000×rcf for 10 min. Pre-dose samples were centrifuged separately prior to dosing. The plasma was then transferred to polypropylene tubes and stored frozen at −80° C.\nPlasma concentrations of SOC-1 were determined using a screening LC-MS/MS method with a following liquid/liquid extraction. Briefly, 50 μL aliquots of the test samples and calibration standards were mixed with 1 mL of hexane:dichloromethane (1:1) for 5 minutes following the addition of 10 μl of internal standard, then centrifuged and the organic phase decanted and dried under nitrogen. The samples were then reconstituted with 0.5 mL of 0.1% formic acid in 30% methanol in deionised water and 0.2 mL transferred to a 96 well plate. A 5 μL aliquot of this sample was then analysed using an ABSciex API 4000 MS/MS coupled to a Shimadzu Prominence HPLC. The HPLC gradients included 0.1% formic acid in deionised water (Mobile Phase A) and 0.1% formic acid in methanol (Mobile Phase B). The LC-MS/MS instrument settings are summarised in Appendix 2. The samples were analysed with calibrated samples (50 to 5000 ng/mL) and concentration data determined by back calculation from the standard curve.\nGroup mean±standard error values for plasma concentration versus time values were determined using Phoenix 64 WinNonlin software. The following pharmacokinetic parameters were also calculated by non-compartmental methods, using Phoenix 64 WinNonlin software: • Rsq—Coefficient of association for the terminal elimination phase (R2). • Lambda—Terminal elimination rate constant associated with the terminal (log-linear) portion of the curve (1/h). • T1/2—Terminal elimination half-life (h) • C0—Initial concentration at time 0 min (ng/mL) determined by back-extrapolating from the first two measured concentration values. • Tmax—Time to maximum plasma concentration following extravascular administration. • Cmax—Maximum plasma concentration following extravascular administration • AUClast—Area under the curve from the time of dosing (Dosing time, time 0 min) to the last measurable concentration (ng·h/mL). • AUCinf—AUC from Dosing time extrapolated to infinity, based on the last observed concentration (obs). (ng·h/mL). • AUC % Extrap—Percentage of AUCinf due to extrapolation from time of last measurable concentration to infinity. • Vz—Volume of distribution (L/kg). • Cl—Total body clearance (L/h/kg). […]"}, "5-HT2B": {"biological_target": "T1, 5-HT2B (Homo sapiens, UniProt P41595)", "T1 construct": "Psychoactive Drug Screening Program (PDSP)", "T1 sequence (P41595 whole entry, species assumed)": "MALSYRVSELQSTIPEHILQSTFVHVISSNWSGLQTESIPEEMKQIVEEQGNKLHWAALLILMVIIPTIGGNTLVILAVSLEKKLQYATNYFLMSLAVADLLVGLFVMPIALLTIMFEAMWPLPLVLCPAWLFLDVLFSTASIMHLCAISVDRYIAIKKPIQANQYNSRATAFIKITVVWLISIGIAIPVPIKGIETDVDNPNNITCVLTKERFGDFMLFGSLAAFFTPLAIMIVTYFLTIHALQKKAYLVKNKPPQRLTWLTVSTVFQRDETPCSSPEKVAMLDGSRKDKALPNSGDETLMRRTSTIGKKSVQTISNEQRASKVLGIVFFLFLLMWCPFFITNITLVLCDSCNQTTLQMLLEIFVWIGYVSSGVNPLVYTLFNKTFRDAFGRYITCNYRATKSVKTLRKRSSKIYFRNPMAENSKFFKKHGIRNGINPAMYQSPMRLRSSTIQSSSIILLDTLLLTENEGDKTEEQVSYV", "experiment": "PDSP orthosteric binding screen", "description": "(§1) Comprehensive screening of affinity for the orthosteric binding sites for numerous receptors from the Psychoactive Drug Screening Program (PDSP) have failed as yet to identify a target, despite the powerful OT-like behavioural effects of the compound evident in vivo and the clear activation of brain OT systems evident from our Fos data."}, "5-HT2C": {"biological_target": "T2, 5-HT2C (Homo sapiens, UniProt P28335)", "T2 construct": "Psychoactive Drug Screening Program (PDSP)", "experiment": "PDSP orthosteric binding screen", "description": "as §1"}, "5-HT3": {"biological_target": "T3, 5-HT3 (Homo sapiens, UniProt P46098)", "T3 construct": "Psychoactive Drug Screening Program (PDSP)", "T3 sequence (P46098 24-478, species assumed)": "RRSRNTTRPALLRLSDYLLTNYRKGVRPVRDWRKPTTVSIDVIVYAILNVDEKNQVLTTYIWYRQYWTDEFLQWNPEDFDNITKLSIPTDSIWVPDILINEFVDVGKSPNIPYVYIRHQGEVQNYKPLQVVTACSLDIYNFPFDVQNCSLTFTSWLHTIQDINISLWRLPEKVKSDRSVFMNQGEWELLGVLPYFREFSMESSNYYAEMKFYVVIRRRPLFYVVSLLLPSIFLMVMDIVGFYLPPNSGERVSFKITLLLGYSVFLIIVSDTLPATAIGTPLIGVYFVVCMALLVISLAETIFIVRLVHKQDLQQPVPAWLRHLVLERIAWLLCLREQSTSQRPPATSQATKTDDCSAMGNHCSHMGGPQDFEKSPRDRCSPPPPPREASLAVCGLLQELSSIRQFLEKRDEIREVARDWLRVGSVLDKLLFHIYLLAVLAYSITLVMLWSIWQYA", "experiment": "PDSP orthosteric binding screen", "description": "as §1"}, "Alpha1D": {"biological_target": "T4, Alpha1D (Homo sapiens, UniProt P25100)", "T4 construct": "Psychoactive Drug Screening Program (PDSP)", "T4 sequence (P25100 whole entry)": "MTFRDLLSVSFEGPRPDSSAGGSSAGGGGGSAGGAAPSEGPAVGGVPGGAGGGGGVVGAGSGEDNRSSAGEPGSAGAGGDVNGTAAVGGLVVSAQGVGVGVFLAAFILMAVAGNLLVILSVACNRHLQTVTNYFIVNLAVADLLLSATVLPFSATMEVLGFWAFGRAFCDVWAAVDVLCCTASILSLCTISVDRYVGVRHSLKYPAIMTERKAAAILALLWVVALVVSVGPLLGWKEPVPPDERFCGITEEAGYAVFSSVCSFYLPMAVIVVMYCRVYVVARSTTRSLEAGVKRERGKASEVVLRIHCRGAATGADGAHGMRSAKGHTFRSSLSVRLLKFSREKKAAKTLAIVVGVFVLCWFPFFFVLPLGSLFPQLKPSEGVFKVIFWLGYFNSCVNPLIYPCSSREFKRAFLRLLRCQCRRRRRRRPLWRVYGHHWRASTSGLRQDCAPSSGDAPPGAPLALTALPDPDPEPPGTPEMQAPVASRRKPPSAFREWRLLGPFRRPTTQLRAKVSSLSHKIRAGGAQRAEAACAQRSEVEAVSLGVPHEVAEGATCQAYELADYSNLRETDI", "experiment": "PDSP orthosteric binding screen", "description": "as §1"}, "BZP Rat Brain Site": {"system": "BZP Rat Brain Site", "experiment": "PDSP orthosteric binding screen", "description": "as §1"}, "Beta2": {"biological_target": "T5, Beta2 (Homo sapiens, UniProt P07550)", "T5 construct": "Psychoactive Drug Screening Program (PDSP)", "T5 sequence (P07550 whole entry)": "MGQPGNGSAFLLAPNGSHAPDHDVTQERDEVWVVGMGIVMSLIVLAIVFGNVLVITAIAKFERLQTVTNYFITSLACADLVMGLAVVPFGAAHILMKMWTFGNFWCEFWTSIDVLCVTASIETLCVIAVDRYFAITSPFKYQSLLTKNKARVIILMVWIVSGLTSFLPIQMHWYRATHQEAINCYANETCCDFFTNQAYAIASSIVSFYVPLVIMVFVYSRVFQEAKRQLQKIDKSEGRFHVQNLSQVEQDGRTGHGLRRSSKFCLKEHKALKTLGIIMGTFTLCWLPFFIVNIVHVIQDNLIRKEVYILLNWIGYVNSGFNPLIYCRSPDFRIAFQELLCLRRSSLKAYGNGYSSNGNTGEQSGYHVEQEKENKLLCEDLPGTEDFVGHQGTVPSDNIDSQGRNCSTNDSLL", "experiment": "PDSP orthosteric binding screen", "description": "as §1"}, "D5": {"biological_target": "T6, D5 (Homo sapiens, UniProt P21918)", "T6 construct": "Psychoactive Drug Screening Program (PDSP)", "T6 sequence (P21918 whole entry)": "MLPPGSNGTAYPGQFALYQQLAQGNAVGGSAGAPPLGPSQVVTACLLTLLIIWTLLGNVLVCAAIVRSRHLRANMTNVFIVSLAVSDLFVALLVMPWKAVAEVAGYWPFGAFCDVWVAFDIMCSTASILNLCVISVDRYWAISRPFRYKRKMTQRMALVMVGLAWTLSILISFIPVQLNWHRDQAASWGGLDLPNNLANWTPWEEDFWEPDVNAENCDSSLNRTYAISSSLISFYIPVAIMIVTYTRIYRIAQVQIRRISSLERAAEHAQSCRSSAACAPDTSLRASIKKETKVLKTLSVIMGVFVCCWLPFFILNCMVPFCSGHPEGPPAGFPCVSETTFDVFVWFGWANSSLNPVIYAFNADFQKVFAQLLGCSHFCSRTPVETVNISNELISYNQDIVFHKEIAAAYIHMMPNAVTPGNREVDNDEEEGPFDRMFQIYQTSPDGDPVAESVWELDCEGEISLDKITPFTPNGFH", "experiment": "PDSP orthosteric binding screen", "description": "as §1"}, "GABAA": {"system": "GABAA", "experiment": "PDSP orthosteric binding screen", "description": "as §1"}, "H3": {"biological_target": "T7, H3 (Homo sapiens, UniProt Q9Y5N1)", "T7 construct": "Psychoactive Drug Screening Program (PDSP)", "T7 sequence (Q9Y5N1 whole entry)": "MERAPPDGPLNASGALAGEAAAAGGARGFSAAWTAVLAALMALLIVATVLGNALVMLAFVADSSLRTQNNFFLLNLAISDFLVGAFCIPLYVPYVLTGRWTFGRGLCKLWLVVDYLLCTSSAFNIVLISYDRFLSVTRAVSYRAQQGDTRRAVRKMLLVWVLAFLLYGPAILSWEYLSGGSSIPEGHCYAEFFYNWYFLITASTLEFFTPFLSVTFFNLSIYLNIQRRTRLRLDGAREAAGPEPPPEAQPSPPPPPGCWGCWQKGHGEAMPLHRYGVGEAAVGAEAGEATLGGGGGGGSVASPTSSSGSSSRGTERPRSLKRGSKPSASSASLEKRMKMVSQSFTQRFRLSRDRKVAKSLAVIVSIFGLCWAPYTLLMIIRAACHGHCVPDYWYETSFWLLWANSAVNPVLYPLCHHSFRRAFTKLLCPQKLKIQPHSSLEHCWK", "experiment": "PDSP orthosteric binding screen", "description": "as §1"}, "M2": {"biological_target": "T8, M2 (Homo sapiens, UniProt P08172)", "T8 construct": "Psychoactive Drug Screening Program (PDSP)", "T8 sequence (P08172 whole entry)": "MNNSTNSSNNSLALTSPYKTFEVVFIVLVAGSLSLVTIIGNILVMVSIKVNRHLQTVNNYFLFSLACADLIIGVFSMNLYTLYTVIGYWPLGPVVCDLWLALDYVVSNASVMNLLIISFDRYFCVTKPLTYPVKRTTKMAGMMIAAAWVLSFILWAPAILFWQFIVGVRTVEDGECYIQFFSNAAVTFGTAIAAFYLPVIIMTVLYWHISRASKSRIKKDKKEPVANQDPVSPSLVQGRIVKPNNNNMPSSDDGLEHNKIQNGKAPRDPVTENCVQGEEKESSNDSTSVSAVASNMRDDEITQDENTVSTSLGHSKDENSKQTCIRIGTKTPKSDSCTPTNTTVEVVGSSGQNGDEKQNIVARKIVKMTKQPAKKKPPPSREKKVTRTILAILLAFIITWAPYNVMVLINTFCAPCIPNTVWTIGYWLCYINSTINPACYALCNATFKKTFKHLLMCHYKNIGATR", "experiment": "PDSP orthosteric binding screen", "description": "as §1"}, "M4": {"biological_target": "T9, M4 (Homo sapiens, UniProt P08173)", "T9 construct": "Psychoactive Drug Screening Program (PDSP)", "T9 sequence (P08173 whole entry)": "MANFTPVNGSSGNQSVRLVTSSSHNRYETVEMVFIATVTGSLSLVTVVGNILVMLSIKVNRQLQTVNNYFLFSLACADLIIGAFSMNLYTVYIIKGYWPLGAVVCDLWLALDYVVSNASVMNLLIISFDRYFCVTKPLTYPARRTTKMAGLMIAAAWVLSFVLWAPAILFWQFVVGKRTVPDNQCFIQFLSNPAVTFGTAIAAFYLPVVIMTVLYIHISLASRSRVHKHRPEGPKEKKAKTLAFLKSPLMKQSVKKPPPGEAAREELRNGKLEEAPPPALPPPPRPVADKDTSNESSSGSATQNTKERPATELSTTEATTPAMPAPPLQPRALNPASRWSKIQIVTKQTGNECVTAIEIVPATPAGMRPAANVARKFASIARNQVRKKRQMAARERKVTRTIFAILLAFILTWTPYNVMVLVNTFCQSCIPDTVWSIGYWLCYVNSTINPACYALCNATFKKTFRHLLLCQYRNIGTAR", "experiment": "PDSP orthosteric binding screen", "description": "as §1"}, "MOR": {"biological_target": "T10, MOR (Homo sapiens, UniProt P35372)", "T10 construct": "Psychoactive Drug Screening Program (PDSP)", "T10 sequence (P35372 whole entry)": "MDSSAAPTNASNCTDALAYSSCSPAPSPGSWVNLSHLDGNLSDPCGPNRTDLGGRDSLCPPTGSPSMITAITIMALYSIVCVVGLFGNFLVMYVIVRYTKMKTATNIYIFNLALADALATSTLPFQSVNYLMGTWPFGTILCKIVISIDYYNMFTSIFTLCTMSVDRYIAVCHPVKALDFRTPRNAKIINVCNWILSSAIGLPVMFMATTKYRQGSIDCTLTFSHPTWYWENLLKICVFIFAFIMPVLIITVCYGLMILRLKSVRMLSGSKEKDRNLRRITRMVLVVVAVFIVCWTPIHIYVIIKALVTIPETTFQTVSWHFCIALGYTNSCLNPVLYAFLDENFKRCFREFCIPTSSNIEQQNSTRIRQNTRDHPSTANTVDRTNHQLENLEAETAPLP", "experiment": "PDSP orthosteric binding screen", "description": "as §1"}, "SERT": {"biological_target": "T11, SERT (Homo sapiens, UniProt P31645)", "T11 construct": "Psychoactive Drug Screening Program (PDSP)", "T11 sequence (P31645 whole entry, species assumed)": "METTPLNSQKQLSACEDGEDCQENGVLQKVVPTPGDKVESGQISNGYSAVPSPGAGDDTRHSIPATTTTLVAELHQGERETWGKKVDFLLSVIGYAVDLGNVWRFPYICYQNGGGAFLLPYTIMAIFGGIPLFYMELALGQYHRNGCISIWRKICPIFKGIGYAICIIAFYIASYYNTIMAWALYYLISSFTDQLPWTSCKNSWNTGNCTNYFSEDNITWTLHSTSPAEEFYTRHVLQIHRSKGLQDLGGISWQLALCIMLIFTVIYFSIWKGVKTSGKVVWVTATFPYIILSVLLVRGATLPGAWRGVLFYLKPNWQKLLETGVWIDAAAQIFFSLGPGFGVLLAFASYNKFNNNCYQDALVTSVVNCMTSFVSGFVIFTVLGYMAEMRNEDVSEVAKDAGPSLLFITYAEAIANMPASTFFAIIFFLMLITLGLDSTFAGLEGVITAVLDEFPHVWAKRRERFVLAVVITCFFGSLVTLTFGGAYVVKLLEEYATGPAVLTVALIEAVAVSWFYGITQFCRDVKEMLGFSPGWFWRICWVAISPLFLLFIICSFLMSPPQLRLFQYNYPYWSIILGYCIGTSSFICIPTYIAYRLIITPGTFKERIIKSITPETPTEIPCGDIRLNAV", "experiment": "PDSP orthosteric binding screen", "description": "as §1"}, "[2]": {"conditions": "male, Sprague Dawley, rat, in vivo, Mean, N 3"}, "[3]": {"conditions": "male, Sprague Dawley, rat, plasma, iv, 20 mg/kg, individual rats"}}, "note": "Values joined by “and” are separate entries in the source; they are usually repeats but may differ in a detail not shown here. Identical values can stand only once. Like-named read-outs stand apart in the source and are kept apart here."}
{"smiles": "Cl.Cn1ncc2c1Nc1ccccc1NC2", "note": "[SOC-1]", "values": [{"measurement": "tolerability, morbidity or mortality", "setting": "[1]", "value": "tolerated and there were no findings of morbidity or mortality"}, {"measurement": "Plasma SOC-1", "setting": "[1]; 2 minutes post-dose, individual rats #1-#3", "value": "12600 ng/mL and 16500 ng/mL"}, {"measurement": "Plasma SOC-1", "setting": "[1]; 5 minutes post-dose, individual rats #1-#3", "value": "13100 ng/mL and 12200 ng/mL"}, {"measurement": "Plasma SOC-1", "setting": "[1]; 10 minutes post-dose, individual rats #1-#3", "value": "10900 ng/mL and 11700 ng/mL"}, {"measurement": "Plasma SOC-1", "setting": "[1]; 30 minutes post-dose, individual rats #1-#3", "value": "8790 ng/mL and 8120 ng/mL"}, {"measurement": "Plasma SOC-1", "setting": "[1]; 1 hour (60 minutes) post-dose, individual rats #1-#3", "value": "6480 ng/mL and 6310 ng/mL"}, {"measurement": "Plasma SOC-1", "setting": "[1]; 2 hours post-dose, individual rats #1-#3", "value": "3610 ng/mL and 2980 ng/mL"}, {"measurement": "Plasma SOC-1", "setting": "[1]; 4 hours post-dose, individual rats #1-#3", "value": "115 ng/mL and 286 ng/mL and 97.3 ng/mL"}, {"measurement": "Plasma SOC-1", "setting": "[1]; 8 hours post-dose, individual rats #1-#3", "value": "BLOQ^a) (below lower limit of quantitation of 50 ng/mL)"}, {"measurement": "Plasma SOC-1", "setting": "[1]; 24 hours post-dose, individual rats #1-#3", "value": "BLOQ^a) (below lower limit of quantitation of 50 ng/mL)"}, {"measurement": "AUC % Extrap", "setting": "[1]; Mean, N 3", "value": 0.803, "unit": "%"}, {"measurement": "Lambda", "setting": "[1]; Mean, N 3", "value": 1.28, "unit": "h⁻¹"}, {"measurement": "AUC % Extrap", "setting": "[1]; individual rats", "value": "0.559% and 1.45% and 0.398%"}, {"measurement": "AUCinf", "setting": "[1]; individual rats", "value": "18400 ng·h/mL and 17000 ng·h/mL"}, {"measurement": "AUClast", "setting": "[1]; individual rats", "value": "18100 ng·h/mL and 17000 ng·h/mL"}, {"measurement": "C0", "setting": "[1]; individual rats", "value": "12600 ng/mL and 20100 ng/mL"}, {"measurement": "Cl", "setting": "[1]; individual rats", "value": "0.931 L/h/kg and 1.00 L/h/kg"}, {"measurement": "Lambda", "setting": "[1]; individual rats", "value": "1.33 h⁻¹ and 1.07 h⁻¹ and 1.44 h⁻¹"}, {"measurement": "T1/2", "setting": "[1]; individual rats", "value": "38.8 min and 29 min"}, {"measurement": "Vz", "setting": "[1]; individual rats", "value": "0.868 L/kg and 0.699 L/kg"}, {"measurement": "AUC(0-inf)", "setting": "[1]; [2]", "value": 17000, "unit": "ng·h/mL"}, {"measurement": "clearance", "setting": "[1]; [2]", "value": 16.8, "unit": "mL/min/kg"}, {"measurement": "half-life", "setting": "[1]; [2]", "value": 33, "unit": "min"}, {"measurement": "C0", "setting": "[1]; male, Sprague Dawley, rat, in vivo, Mean, N 3, read-out: C0", "value": 18200, "unit": "ng/mL"}, {"measurement": "Vd", "setting": "[1]; [2]", "value": 0.799, "unit": "L/kg"}, {"measurement": "concentration at 2 min", "setting": "[1]; male, Sprague Dawley, rat, plasma, intravenous, 20 mg/kg, 2 minutes post-dose, individual rats #1-#3, read-out: Plasma SOC-1", "value": 17200, "unit": "ng/mL"}, {"measurement": "concentration at 5 min", "setting": "[1]; male, Sprague Dawley, rat, plasma, intravenous, 20 mg/kg, 5 minutes post-dose, individual rats #1-#3, read-out: Plasma SOC-1", "value": 11900, "unit": "ng/mL"}, {"measurement": "concentration at 10 min", "setting": "[1]; male, Sprague Dawley, rat, plasma, intravenous, 20 mg/kg, 10 minutes post-dose, individual rats #1-#3, read-out: Plasma SOC-1", "value": 12800, "unit": "ng/mL"}, {"measurement": "concentration at 30 min", "setting": "[1]; male, Sprague Dawley, rat, plasma, intravenous, 20 mg/kg, 30 minutes post-dose, individual rats #1-#3, read-out: Plasma SOC-1", "value": 7120, "unit": "ng/mL"}, {"measurement": "concentration at 1 h", "setting": "[1]; male, Sprague Dawley, rat, plasma, intravenous, 20 mg/kg, 1 hour (60 minutes) post-dose, individual rats #1-#3, read-out: Plasma SOC-1", "value": 5720, "unit": "ng/mL"}, {"measurement": "concentration at 2 h", "setting": "[1]; male, Sprague Dawley, rat, plasma, intravenous, 20 mg/kg, 2 hours post-dose, individual rats #1-#3, read-out: Plasma SOC-1", "value": 2310, "unit": "ng/mL"}, {"measurement": "AUC(0-t)", "setting": "[1]; male, Sprague Dawley, rat, plasma, iv, 20 mg/kg, Mean, N 3", "value": 16800, "unit": "ng·h/mL"}, {"measurement": "AUC(0-inf)", "setting": "[1]; [3]", "value": 15500, "unit": "ng·h/mL"}, {"measurement": "AUC(0-t)", "setting": "[1]; [3]", "value": 15400, "unit": "ng·h/mL"}, {"measurement": "clearance", "setting": "[1]; [3]", "value": 18.5, "unit": "mL/min/kg"}, {"measurement": "half-life", "setting": "[1]; [3]", "value": 31.3, "unit": "min"}, {"measurement": "C0", "setting": "[1]; male, Sprague Dawley, rat, plasma, iv, 20 mg/kg, individual rats, read-out: C0", "value": 21900, "unit": "ng/mL"}, {"measurement": "Vd", "setting": "[1]; [3]", "value": 0.831, "unit": "L/kg"}, {"measurement": "affinity for 5-HT2B", "setting": "5-HT2B", "value": "no notable affinity"}, {"measurement": "affinity for 5-HT2C", "setting": "5-HT2C", "value": "no notable affinity"}, {"measurement": "affinity for 5-HT3", "setting": "5-HT3", "value": "no notable affinity"}, {"measurement": "affinity for Alpha1D", "setting": "Alpha1D", "value": "no notable affinity"}, {"measurement": "affinity for BZP Rat Brain Site", "setting": "BZP Rat Brain Site", "value": "no notable affinity"}, {"measurement": "affinity for Beta2", "setting": "Beta2", "value": "no notable affinity"}, {"measurement": "affinity for D5", "setting": "D5", "value": "no notable affinity"}, {"measurement": "affinity for GABAA", "setting": "GABAA", "value": "no notable affinity"}, {"measurement": "affinity for H3", "setting": "H3", "value": "no notable affinity"}, {"measurement": "affinity for M2", "setting": "M2", "value": "no notable affinity"}, {"measurement": "affinity for M4", "setting": "M4", "value": "no notable affinity"}, {"measurement": "affinity for MOR", "setting": "MOR", "value": "no notable affinity"}, {"measurement": "affinity for SERT", "setting": "SERT", "value": "no notable affinity"}]}
